≈ marks a conversion by molar mass, not a printed value.
How the values were obtained:
[1] = In vivo test for axillary irritation of 1.0% BCA; set-up: species or system human; conditions: 1.0% in 60% propylene glycol/40% water, pH about 6.25, 1.0 ml, four consecutive days, seven panelists
Procedure: In vivo experiments were conducted to determine if 1.0% solutions of BCA were irritating to axillary skin. BCA was dissolved in a mixture of 60% propylene glycol and 40% water at a final concentration of 1.0%. The pH of the solution was adjusted to about 6.25 with 10 N NaOH. Seven panelists applied 1.0 ml of this test solution to a cotton applicator swab and applied the solution to either the right or left axilla. 1.0 ml of a control solution of 60% propylene glycol and 40% water was similarly applied to the other axilla. The side of application of the test or control solutions was assigned in a random fashion. This procedure was performed on four consecutive days. Axilla were monitored by a nurse for signs of skin irritation.

β-lyase = experiment: Sniff vial test: malodor formation from precursors by whole Staphylococcus haemolyticus cells (beta-lyase inhibition); format: cell-based; conditions: 31-0.625 mM, phosphate buffer pH 6.8, 30 minutes at 35° C.; judged by smelling
Procedure: BCA was tested for its ability to prevent Staphylococcus haemolyticus from metabolizing sweat to form malodor. Log-phase cultures of Staphylococcus haemolyticus were incubated with various concentrations of BCA (31-0.625 mM) in phosphate buffer (pH 6.8) for 30 minutes at 35° C. The cell/BCA mixture was then added to a "sniff vial" containing malodor precursors and incubated at 35° C. for an additional 30 minutes. Malodor compounds were then extracted from the mixture with chloroform and malodor was judged by spotting 10 μl of chloroform extracts onto bibulous paper and smelling. […] In contrast, the β-lyase inhibitor aminooxyacetic acid (AOA) consistently prevents malodor in the above assay at concentrations of 5.0 mM.

axillary malodor [2] = experiment: Example 4: axillary malodor evaluation by trained odor judges, 1.0% BCA vs vehicle; format: in vivo, human; conditions: for 24 hours drop from untreated Control / Malodor Evaluation (score): 1.0% BCA; for Malodor Evaluation (score): 24 h after application, scale 0 to 10
Procedure: (§1) BCA was dissolved in a mixture of 60% propylene glycol and 40% water at a final concentration of 1.0%. The pH of the solution was adjusted to about 6.25 with 10 N NaOH. Thirty-nine female panelists applied 0.5 ml of this test solution to either the right or left axilla and 0.5 ml of a comparative solution of 60% propylene glycol and 40% water to the other. The side of application of the test or comparative solutions was assigned in a random fashion. Twenty-four hours after application, each side of the panelists' axilla was judged for odor by a panel of trained odor judges on a scale of 0 (no odor) to 10 (very intense, disagreeable odor). This procedure was performed on four consecutive days. […] Analysis of the clinical results is summarized below:
Significance was measured in a two-tailed T-test al 95% confidence level and n=number of subjects.

axillary malodor [3] = experiment: Example 6: axillary malodor evaluation by odor judges, 1.0% β-chloro-D-alanine vs 1.0% β-chloro-L-alanine; format: in vivo, human; set-up: key to 24 Hour Drop from Control / A-B (drop), D-BCA minus L-BCA: drop in odor score on 0 (no odor) to 10 (very intense) scale; conditions: for 24 Hour Drop from Control: 1.0% in 60% propylene glycol/40% water
Procedure: as §1
A test product containing 1.0% β-chloro-D-alanine (BCA)[…] in 60% propylene glycol/40% water was compared to a comparative product containing 1.0% β-chloro-L-alanine in 60% propylene glycol/40% water by application to 50 female test subjects according to the procedure of Example 4.

Coryneform bacteria = experiment: Minimum inhibitory concentration (MIC) in axillary bacteria, Coryneform strain; format: cell-based, Coryneform strains of axillary bacteria
Procedure: (§2) In vitro experiments were conducted in order to determine the ability of several bacterial cell wall synthesis inhibitors to inhibit the growth of axillary bacteria. The minimum inhibitory concentrations (MIC) of β-chloro-D-alanine (BCA), and D-cycloserine were determined in Staphylococcus (Staphylococcus haemolyticus) and Coryneform strains of axillary bacteria as follows: Frozen stock cultures were thawed out and 50 μl of Staphylococcus haemolyticus or 100 μl of Coryneform bacteria were inoculated into 5.0 ml of nutrient media. Bacteria were incubated at 35° C. overnight to produce cultures in log phase growth. A series of tubes was set up into which serial dilutions of BCA or triclosan in nutrient media were added in the range of 0.1 to 0.0001 wt/v % (where 1 g/100 ml=1 wt/v %). The tubes were inoculated with 50 μl of log phase Staphylococcus haemolyticus or Coryneform cultures and incubated at 35° C. overnight. […] The minimum bactericidal concentration (MBC) was determined by adding 50 μl from each clear solution of the MIC experiment into 5.0 ml of fresh nutrient media and incubating overnight at 37° C. […] The MIC of BCA was thus determined to be 0.1 wt/v % and 0.001 wt/v % in Staphylococcus haemolyticus and Coryneforms, respectively. The MIC of D-cycloserine was thus determined to be 0.01 wt/v % and 0.005 wt/v % in Staphylococcus haemolyticus and Coryneforms, respectively. By comparison, the MIC of the common antibacterial deodorant compound triclosan is 0.01 wt/v % and 0.1 wt/v % in Staphylococcus haemolyticus and Coryneforms, respectively.

[4] = system: Staphylococcus haemolyticus; experiment: Minimum inhibitory concentration (MIC) in axillary bacteria, Staphylococcus strain; format: cell-based
Procedure: as §2

N[C@H](CCl)C(=O)O [BCA, β-chloro-D-alanine]
Axillary skin irritation [1]: No incidences of irritation were reported
Inhibition of malodor formed by staphylococcal metabolism of precursors (β-lyase): did not inhibit malodor
Axillary skin irritation (axillary malodor [2]; 1.0% in 60% propylene glycol/40% water, 0.5 ml, four consecutive days, thirty-nine female panelists): No incidences of irritation were reported
Deodorant efficacy versus 60% propylene glycol/40% water comparative product (axillary malodor [2]; 95% confidence level, measurements 3, 4 and composite): significantly more effective
A-B (drop of comparative product minus drop of BCA product) (axillary malodor [2]; composite): -0.29
24 hours drop from untreated Control (axillary malodor [2]; composite): 0.96
Malodor Evaluation (score) (axillary malodor [2]; measurement 1): 4.18
Malodor Evaluation (score) (axillary malodor [2]; measurement 2): 3.6
Malodor Evaluation (score) (axillary malodor [2]; measurement 3): 3.3
Malodor Evaluation (score) (axillary malodor [2]; measurement 4): 3.49
A-B (drop of comparative product minus drop of BCA product) (axillary malodor [2]; post-application measurement 1): 0.11
24 hours drop from untreated Control (axillary malodor [2]; post-application measurement 1): 0.41
A-B (drop of comparative product minus drop of BCA product) (axillary malodor [2]; post-application measurement 2): -0.21
24 hours drop from untreated Control (axillary malodor [2]; post-application measurement 2): 0.99
A-B (drop of comparative product minus drop of BCA product) (axillary malodor [2]; post-application measurement 3): -0.50
24 hours drop from untreated Control (axillary malodor [2]; post-application measurement 3): 1.29
A-B (drop of comparative product minus drop of BCA product) (axillary malodor [2]; post-application measurement 4): -0.62
24 hours drop from untreated Control (axillary malodor [2]; post-application measurement 4): 1.10
A-B (drop), D-BCA minus L-BCA (axillary malodor [3]; composite): 0.436
24 Hour Drop from Control (axillary malodor [3]; composite): 1.519
Control of malodor, BCA test product versus 1.0% β-chloro-L-alanine comparative product (axillary malodor [3]; measurements 2-4 and composite, 95% level of confidence, not the first measurement): significantly more effective
A-B (drop), D-BCA minus L-BCA (axillary malodor [3]; post-application measurement 1): 0.166
24 Hour Drop from Control (axillary malodor [3]; post-application measurement 1): 1.079
A-B (drop), D-BCA minus L-BCA (axillary malodor [3]; post-application measurement 2): 0.452
24 Hour Drop from Control (axillary malodor [3]; post-application measurement 2): 1.492
A-B (drop), D-BCA minus L-BCA (axillary malodor [3]; post-application measurement 3): 0.665
24 Hour Drop from Control (axillary malodor [3]; post-application measurement 3): 1.678
A-B (drop), D-BCA minus L-BCA (axillary malodor [3]; post-application measurement 4): 0.529
24 Hour Drop from Control (axillary malodor [3]; post-application measurement 4): 1.862
MIC (Coryneform bacteria): 10 mg/L (≈ 0.0809 mM)
MIC [4]: 1000 mg/L (≈ 8.09 mM)

Source: patent publication US6060043A, “Deodorant composition containing D-amino acid” (The Gillette Company, priority 1998, dated 2000)
